Structures can show the parent of a compound that is named as a salt.
Each compound was assayed on A549 NSCLC cells (assay: Cellular cytotoxicity assay (Alamar Blue), A549). Conditions: Homo sapiens, 72 h, upper end given as ≧100, read-out: IC50 (μM), cytotoxicity towards A549 NSCLC cells.
Assay type: cell-based
Experimental: The anti-proliferative activity of the histone deacetylase inhibitory compounds as described herein, is evaluated using the following cell lines: HeLa and HeLa-KB (cervical carcinoma), H460 (non small cell lung cancer), A549 (non-small cell lung cancer), MCF7 (breast carcinoma), MCF10A (normal, non tumorigenic breast epithelial), MDA-MB468 (breast carcinoma), MDA-MB435 (breast carcinoma), MDA-MB231 (breast carcinoma), SKBR-3 (breast carcinoma), SKOV-3 (ovarial carcinoma), A-2780 (ovarial carcinoma), RKO (colon carcinoma), HCT-15 (colon carcinoma), HCT-116 (colon carcinoma), PC3 (prostate carcinoma), BPH1 (benign prostate hyperplasia), AsPC1 (pancreatic carcinoma), Ca127 (tongue carcinoma), A-431 (vulva carcinoma), Hec1A (endometrial carcinoma), Saos-2 (osteosarcoma), U87MG (glioblastoma), WM266-4 (melanoma), K562 (chronic myeloid leukemia), EOL1 (acute hypereosinophilic myeloid leukemia), CCRF-CEM and CCRF-CEM VCR1000 (acute lymphoblastic leukemia sensitive and resistant towards Vincristine). For quantification of cellular proliferation/living cells the Alamar Blue (Resazurin) cell viability assay is applied (O'Brien et al. Eur J Biochem 267, 5421-5426, 2000). In this assay Resazurin is reduced to the fluorescent resorufine by cellular dehydrogenase activity, correlating with viable, proliferating cells. The examples are dissolved as 20 mM solutions in dimethylsulfoxide (DMSO) and subsequently diluted in semi-logarithmic steps. Cell lines are seeded at respective density into 96 well flat bottom plates in a volume of 200 μl per well. 24 h after seeding 1 μl each of the compound dilutions are added into each well of the 96 well plate. Each compound dilution is tested as quadruplicates. Wells containing untreated control cells are filled with 200 μl DMEM medium containing 0.5% v:v DMSO. The cells are then incubated with the compounds for 72 h at 37° C. in a humidified atmosphere containing 5% carbon dioxide. To determine the viability of the cells, 20 μl of a Resazurin solution (Sigma; 90 mg/l) are added. After 4 h incubation at 37° C. the fluorescence is measured at an extinction of λ=544 nm and an emission of λ=590 nm. For the calculation of the cell viability the emission value from untreated cells is set as 100% viability and the emission rates of treated cells are set in relation to the values of untreated cells. Viabilities are expressed as % values. The corresponding IC50 values of the compounds for cytotoxic activity are determined from the concentration-effect curves by means of non-linear regression.
`COc1ccc(N=C(NC#N)N2CCc3nc(C(=O)Nc4cc(C(C)C)ccc4N)sc3C2)cc1` [Example 125, N-(2-amino-5-isopropylphenyl)-5-{(cyanoamino)[(4-methoxyphenyl)-imino]methyl}-4,5,6,7-tetrahydro[1,3]thiazolo[5,4-c]pyridine-2-carboxamide] showed an IC50 of at least 0.2 µM. `COc1ccc(NC(=O)C(=O)N2CCc3nc(C(=O)Nc4ccccc4N)sc3C2)cn1` [Example 70, N-(2-aminophenyl)-5-{[(6-methoxypyridin-3-yl)amino](oxo)acetyl}-4,5,6,7-tetrahydro[1,3]thiazolo[5,4-c]pyridine-2-carboxamide] showed an IC50 of at least 0.2 µM. `Nc1ccccc1NC(=O)c1nc2c(s1)CN(C(=S)Nc1ccccc1)CC2` [Example 98, N-(2-aminophenyl)-5-(anilinocarbonothioyl)-4,5,6,7-tetrahydro[1,3]thiazolo[5,4-c]pyridine-2-carboxamide] showed an IC50 of at least 0.2 µM. With `Nc1ccccc1NC(=O)c1nc2c(s1)CN(S(=O)(=O)c1ccc(OC(F)(F)F)cc1)CC2` [Example 168, N-(2-aminophenyl)-5-{[4-(trifluoromethoxy)phenyl]sulfonyl}-4,5,6,7-tetrahydro[1,3]thiazolo[5,4-c]pyridine-2-carboxamide] the IC50 was at least 0.2 µM. Compound `Nc1ccccc1NC(=O)c1nc2c(s1)CN(S(=O)(=O)c1cccs1)CC2` [Example 157, N-(2-aminophenyl)-5-(2-thienylsulfonyl)-4,5,6,7-tetrahydro[1,3]thiazolo[5,4-c]pyridine-2-carboxamide] has an IC50 of at least 0.2 µM. `COc1ccc(N)c(NC(=O)c2nc3c(s2)CN(C(C)=Nc2ccc(OC)c(OC)c2)CC3)c1` [Example 131, N-(2-amino-5-methoxyphenyl)-5-[N-(3,4-dimethoxyphenyl)ethanimidoyl]-4,5,6,7-tetrahydro[1,3]thiazolo[5,4-c]pyridine-2-carboxamide] was tested, and the IC50 was at least 0.2 µM. In the case of `CC(C)c1ccc(N)c(NC(=O)c2nc3c(s2)CN(C(=S)Nc2cccnc2)CC3)c1` [Example 108, N-(2-amino-5-isopropylphenyl)-5-[(pyridin-3-ylamino)carbonothioyl]-4,5,6,7-tetrahydro[1,3]thiazolo[5,4-c]pyridine-2-carboxamide], the IC50 is reported as at least 0.2 µM. `Nc1ccccc1NC(=O)c1nc2c(s1)CN(C(=O)C(=O)NC1CCC(c3cccnc3)CC1)CC2` (stereo not drawn) [Example 69, N-(2-aminophenyl)-5-{oxo[(4-pyridin-3-ylcyclohexyl)amino]acetyl}-4,5,6,7-tetrahydro[1,3]thiazolo[5,4-c]pyridine-2-carboxamide] gave an IC50 of at least 0.2 µM. `COc1ccc(NC(=C[N+](=O)[O-])N2CCc3nc(C(=O)Nc4ccccc4N)sc3C2)cc1` [Example 137, N-(2-aminophenyl)-5-{1-[(4-methoxyphenyl)amino]-2-nitroyinyl}-4,5,6,7-tetrahydro[1,3]thiazolo[5,4-c]pyridine-2-carboxamide] was tested, and the IC50 was at least 0.2 µM. In the case of `COc1ccc(N)c(NC(=O)c2nc3c(s2)CN(C(=Nc2ccccc2)NC#N)CC3)c1` [Example 123, N-(2-amino-5-methoxyphenyl)-5-[(cyanoamino)(phenylimino)methyl]-4,5,6,7-tetrahydro[1,3]thiazolo[5,4-c]pyridine-2-carboxamide], the IC50 is reported as at least 0.2 µM. For `COc1ccc(NC(=O)N2CCc3nc(C(=O)Nc4cc(-c5ccsc5)ccc4N)sc3C2)cc1` [Example 56, N^2-[2-amino-5-(3-thienyl)phenyl]-N^5-(4-methoxyphenyl)-6,7-dihydro[1,3]thiazolo[5,4-c]pyridine-2,5(4H)-dicarboxamide], the IC50 was at least 0.2 µM. `COC(=O)c1ccc(C(=O)N2CCc3nc(C(=O)Nc4ccccc4N)sc3C2)cc1` [Example 90, Methyl 4-({2-[(2-aminophenyl)carbamoyl]-6,7-dihydro[1,3]thiazolo[5,4-c]pyridin-5(4H)-yl}carbonyl)benzoate] showed an IC50 of at least 0.2 µM. `CN=C(Nc1ccccc1)N1CCc2nc(C(=O)Nc3ccccc3N)sc2C1` [Example 114, N-(2-aminophenyl)-5-[anilino(methylimino)methyl]-4,5,6,7-tetrahydro[1,3]thiazolo[5,4-c]pyridine-2-carboxamide. (Dihydrochloride)] was tested, and the IC50 was at least 0.2 µM. `CN=C(Nc1ccc(OC)cc1)N1CCc2nc(C(=O)Nc3cc(OC)ccc3N)sc2C1` [Example 115, N-(2-amino-5-methoxyphenyl)-5-[[(4-methoxyphenyl)amino](methylimino)methyl]-4,5,6,7-tetrahydro[1,3]thiazolo[5,4-c]pyridine-2-carboxamide] was tested, and the IC50 was at least 0.2 µM. Compound `COc1ccc(N)c(NC(=O)c2nc3c(s2)CN(C(=C[N+](=O)[O-])Nc2ccc(N(C)C)cc2)CC3)c1` [Example 144, N-(2-amino-5-methoxyphenyl)-5-[1-{[4-(dimethylamino)phenyl]amino}-2-nitrovinyl]-4,5,6,7-tetrahydro[1,3]thiazolo[5,4-c]pyridine-2-carboxamide] has an IC50 of at least 0.2 µM. `Nc1ccccc1NC(=O)c1nc2c(s1)CN(C(=O)NC1CCNCC1)CC2` [Example 42, N^2-(2-aminophenyl)-N^5-piperidin-4-yl-6,7-dihydro[1,3]thiazolo[5,4-c]pyridine-2,5(4H)-dicarboxamide] showed an IC50 of at least 0.2 µM. `Nc1ccccc1NC(=O)c1nc2c(s1)CN(S(=O)(=O)c1cccc(F)c1)CC2` [Example 163, N-(2-aminophenyl)-5-[(3-fluorophenyl)sulfonyl]-4,5,6,7-tetrahydro[1,3]-thiazolo[5,4-c]pyridine-2-carboxamide] showed an IC50 of at least 0.2 µM. `Nc1ccccc1NC(=O)c1nc2c(s1)CN(C(=O)C(=O)NCc1ccccc1)CC2` [Example 85, N-(2-aminophenyl)-5-[(benzylamino)(oxo)acetyl]-4,5,6,7-tetrahydro[1,3]thiazolo[5,4-c]pyridine-2-carboxamide] showed an IC50 of at least 0.2 µM. Compound `Nc1ccccc1NC(=O)c1nc2c(s1)CN(C(=O)c1ccc(-c3ccccc3)cc1)CC2` [Example 88, N-(2-aminophenyl)-5-(biphenyl-4-ylcarbonyl)-4,5,6,7-tetrahydro[1,3]thiazolo[5,4-c]pyridine-2-carboxamide] has an IC50 of at least 0.2 µM. With `CCCCNC(=O)N1CCc2nc(C(=O)Nc3ccccc3N)sc2C1` [Example 40, N^2-(2-aminophenyl)-N^5-butyl-6,7-dihydro[1,3]thiazolo[5,4-c]pyridine-2,5(4H)-dicarboxamide] the IC50 was at least 0.2 µM. In the case of `Nc1ccccc1NC(=O)c1nc2c(s1)CN(C(=O)Nc1ccc(OC(F)F)cc1)CC2` [Example 11, N^2-(2-aminophenyl)-N5-[4-(difluoromethoxy)phenyl]-6,7-dihydro[1,3]thiazolo[5,4-c]pyridine-2,5(4H)-dicarboxamide], the IC50 is reported as at least 0.2 µM. Work on `Nc1ccccc1NC(=O)c1nc2c(s1)CN(C(=O)NC1CCC(c3ccncc3)CC1)CC2` (stereo not drawn) [Example 44, N^2-(2-aminophenyl)-N^5-(4-pyridin-4-ylcyclohexyl)-6,7-dihydro[1,3]thiazolo[5,4-c]pyridine-2,5(4H)-dicarboxamide] yielded an IC50 of at least 0.2 µM. In the case of `Nc1ccccc1NC(=O)c1nc2c(s1)CN(C(=C[N+](=O)[O-])Nc1ccccc1)CC2` [Example 136, N-(2-aminophenyl)-5-[1-anilino-2-nitroyinyl]-4,5,6,7-tetrahydro[1,3]thiazolo[5,4-c]pyridine-2-carboxamide], the IC50 is reported as at least 0.2 µM. Compound `Nc1ccccc1NC(=O)c1nc2c(s1)CN(S(=O)(=O)c1cccc(C(F)(F)F)c1)CC2` [Example 162, N-(2-aminophenyl)-5-{[3-(trifluoromethyl)phenyl]sulfonyl}-4,5,6,7-tetrahydro[1,3]thiazolo[5,4-c]pyridine-2-carboxamide] has an IC50 of at least 0.2 µM. With `COc1ccc(N=C(NC#N)N2CCc3nc(C(=O)Nc4cc(OC)ccc4N)sc3C2)cc1` [Example 124, N-(2-amino-5-methoxyphenyl)-5-{(cyanoamino)[(4-methoxyphenyl)imino]-methyl}-4,5,6,7-tetrahydro[1,3]thiazolo[5,4-c]pyridine-2-carboxamide] the IC50 was at least 0.2 µM. With `CC(C)c1ccc(NC(=C[N+](=O)[O-])N2CCc3nc(C(=O)Nc4ccccc4N)sc3C2)cc1` [Example 139, N-(2-aminophenyl)-5-{1-[(4-isopropylphenyl)amino]-2-nitrovinyl}-4,5,6,7-tetrahydro[1,3]thiazolo[5,4-c]pyridine-2-carboxamide] the IC50 was at least 0.2 µM. In the case of `COc1ccc(NC(=N)N2CCc3nc(C(=O)Nc4ccccc4N)sc3C2)cc1` [Example 111, N-(2-aminophenyl)-5-{imino[(4-methoxyphenyl)amino]methyl}-4,5,6,7-tetrahydro[1,3]thiazolo[5,4-c]pyridine-2-carboxamide], the IC50 is reported as at least 0.2 µM.

From patent US8440830B2, “Tetrahydro-fused pyridines as histone deacetylase inhibitors” (4SC AG, priority 2007, dated 2013)
